Assay results taken from paper PMC9959048, “Lipidation of Naturally Occurring α-Helical Antimicrobial Peptides as a Promising Strategy for Drug Design” (International Journal of Molecular Sciences, 2023).
Residues, ends and D or L forms follow the SMILES beside them. *: point of attachment. Octanoyl = CCCCCCCC(=O)*

Legend:
[1] = tested on: human breast cancer cells (MCF-7 line, ATCC); test: MTT cytotoxicity assay; type: cell-based; details: IC50 against HaCaT divided by IC50 for MCF-7
Experimental: (§1) The prepared plates were further incubated for 48 h. […] The control cell viability was assumed to be 100%. Three independent experiments were carried out in three repetitions.

[2] = tested on: human prostate cancer cells (PC3 line, ATCC); test: MTT cytotoxicity assay; type: cell-based; details: IC50 against HaCaT divided by IC50 for PC3
Experimental: as §1

POPG liposomes = test: CD, α-helix content in POPG liposomes; type: physicochemical; details: 25 °C, peptide 0.15 mg/mL, 1.3 mM POPG, from ellipticity at 222 nm
Experimental: Large unilamellar vesicles (LUV) were obtained by extrusion of MLV liposomes through polycarbonate membrane filters with a pore diameter of 100 nm (Whatman International Ltd., Kent, UK) using a mini-extruder (Avanti Polar Lipids, Inc., Alabaster, AL, USA).
CD experiments were carried out at 25 °C using a Jasco J-815 spectropolarimeter in the wavelength range 185–260 nm. The concentration of the lipopeptides was 0.15 mg/mL. The CD spectra were recorded in water, PBS (pH 7.4), 1.3 mM POPC and 1.3 mM POPG. The results are plotted as the mean molar ellipticity per one amino acid residue (MRME, deg cm^2 dmol^−1) as a function of the wavelength (nm). Additionally, we performed a conformational analysis of the selected compounds in the presence of S. aureus cells. […] The mixtures were then incubated for 2 h before recording the CD spectra.
The percentage of the α-helical structure was calculated based on the mean molar ellipticity at 222 nm using the formula: fH=θ222−3000/−36000−3000·100% where θ222 corresponds to the value of the mean molar ellipticity at a wavelength of 222 nm.

[3] = Dynamic light scattering of lipopeptide assemblies; type: physicochemical; details: DLS, sonicated 10 min, incubated 1 h, 90° side scatter
Experimental: The hydrodynamic diameters of the lipopeptide nanoaggregates were examined by the Litesizer 500 (Anton-Paar GmbH, Graz, Austria) at 25 °C. The measurements were carried out at various lipopeptide concentrations ranging from 0.5 to 2 mM and from 0.25 to 2 mM, in water and PBS, respectively. Two-fold serial dilutions were used to obtain the sequential concentrations. Each sample was sonicated for 10 min followed by incubation for 1 h at 25 °C and transferred to the polystyrene cuvette. The detector was positioned at a side scatter position (90°). The analysis of the obtained results and report generation was performed with KalliopeTM software (Anton-Paar GmbH, Graz, Austria).

Structure (SMILES): CCCCCCCC(=O)N[C@H](C(=O)N[C@@H](CCCCN)C(=O)N[C@@H](CCCCN)C(=O)N[C@H](C(=O)N[C@@H](CC(C)C)C(=O)N[C@@H](CO)C(=O)N[C@@H](CCCCN)C(=O)N[C@H](C(=O)N[C@@H](CCCCN)C(=O)N[C@@H](CCCCN)C(=O)N[C@@H](CC(C)C)C(=O)N[C@@H](CC(C)C)C(=O)N[C@@H](CCCCN)C(N)=O)[C@@H](C)CC)[C@@H](C)CC)[C@@H](C)CC [C8-LK6] (Octanoyl-IKKILSKIKKLLK-NH2)
- SI MCF-7 [1]: 3.44
- SI PC3 [2]: 1.50
- α-Helix percentage, POPG (POPG liposomes): 24%
- hydrodynamic diameter, peak of highest scattering intensity ([3]; 0.25 mM in PBS pH 7.4, 25 °C): 2596 ± 512 nm
- hydrodynamic diameter, peak of highest scattering intensity ([3]; 0.5 mM salt-free aqueous solution, 25 °C): 327 ± 102 nm
- hydrodynamic diameter ([3]; 2 mM in PBS pH 7.4, 25 °C): 3047 ± 750 nm
